Key:
Assay type in all cases: in vivo, human
[1] = tested on: adult subjects with major depressive disorder (MDD); experiment: Phase 2 placebo-controlled study in MDD, Montgomery-Asberg Depression Rating Scale (MADRS) total score; details: males
Method: (§1) A Phase 2, multicenter, double-blind, randomized, placebo-controlled study of the safety and efficacy of SP-624 in the treatment of adult subjects with major depressive disorder (MDD) as defined by the Diagnostic and Statistical Manual of Mental Disorders, Fifth Edition (DSM-5) was carried out. Following the successful completion of a Screening Phase, subjects were randomized to one of two treatment groups in a 1:1 ratio and received Compound 1 (SP-624) or placebo over a treatment period of four weeks (Treatment Group #1: SP-624 20 mg/day; Treatment Group #2: Placebo).
(§2) Prior to initiating the 4-week treatment period, subjects completed a Screening/Baseline period of up to 28 days, during which time all screening assessments were performed, and any current depression medications discontinued. All screening assessments were completed before discontinuing any current depression medications. Subjects returned for a Baseline Visit to complete efficacy and safety assessments. During the treatment period, subjects returned to the investigative site to complete efficacy and safety assessments at the end of Weeks 1, 2, 3, and 4. After the final dose of study drug, subjects completed a follow-up period of two weeks and returned at the end of Weeks 5 and 6. Subjects may be treated with anti-depressant medications according to physician recommendations after completion of the Week 5 Visit.
(§3) Each dose of Compound 1 was supplied as two capsules, each containing 10 mg of active pharmaceutical ingredient (API). Matching placebo capsules identical in shape and color to the active capsules were used.
The primary efficacy endpoint was Change from Baseline to Week 4 in Montgomery-Asberg Depression Rating Scale (MADRS) total score.
(§4) Secondary efficacy endpoints included: • Change from Baseline to Weeks 1, 2, and 3 in MADRS total score, • Change from Baseline to Weeks 1, 2, 3, and 4 in Clinical Global Impression-Severity (CGI-S) total score, • Change from Baseline to Week 5 and change from Week 4 to Week 5 in MADRS total score and CGI-S total score, • Change from Baseline to Week 2 and Week 4 in the 17-item Hamilton Depression Rating Scale (HAM D-17) total score, • Change from Baseline to Week 2 and Week 4 in the Sheehan Disability Scale (SDS), • Change from Baseline to Week 2 and Week 4 in the Quick Inventory of Depressive Symptomology-Self Report (QIDS-SR), and • Change from Baseline to Week 2 and Week 4 in the Quality of Life Enjoyment and Satisfaction Questionnaire-Short Form (Q-LES-Q-SF).

[2] = tested on: adult subjects with major depressive disorder (MDD); experiment: Phase 2 placebo-controlled study in MDD, 17-item Hamilton Depression Rating Scale (HAM D-17) total score; details: mITT; for Change from Baseline, HAM-D-17 Total at Week 2, LSM Difference (95% CI) / Change from Baseline, HAM-D-17 Total at Week 4, LSM Difference (95% CI): 20 mg/day vs Placebo; for Change from Baseline, HAM-D-17 Total at Week 2, Mean (SD) / Change from Baseline, HAM-D-17 Total at Week 2, Median / Change from Baseline, HAM-D-17 Total at Week 4, Mean (SD) / Change from Baseline, HAM-D-17 Total at Week 4, Median / HAM-D-17 Total at Week 2, Mean (SD) / HAM-D-17 Total at Week 2, Median / HAM-D-17 Total at Week 4, Mean (SD) / HAM-D-17 Total at Week 4, Median: 20 mg/day
Method: as §1, §2, §3, §4

[3] = tested on: adult subjects with major depressive disorder (MDD); experiment: Phase 2 placebo-controlled study in MDD, Sheehan Disability Scale (SDS); details: mITT; for Change from Baseline, SDS Total at Week 2, LSM Difference (95% CI) / Change from Baseline, SDS Total at Week 4, LSM Difference (95% CI): 20 mg/day vs Placebo; for Change from Baseline, SDS Total at Week 2, Mean (SD) / Change from Baseline, SDS Total at Week 2, Median / Change from Baseline, SDS Total at Week 4, Mean (SD) / Change from Baseline, SDS Total at Week 4, Median / SDS Total at Week 2, Mean (SD) / SDS Total at Week 2, Median / SDS Total at Week 4, Mean (SD) / SDS Total at Week 4, Median: 20 mg/day
Method: as §1, §2, §3, §4

Structure (SMILES): COC1=CC(=O)C[C@@H](C)[C@]12Oc1c(Cl)c(-c3nnc(C)o3)cc(OC)c1C2=O [SP-624, (2S,6′R)-7-Chloro-2′,4-dimethoxy-6′-methyl-6-(5-methyl-1,3,4-oxadiazol-2-yl)-3H-spiro[1-benzofuran-2,1′-cyclohex [2]ene]-3,4′-dione]
- effect on MADRS score [1]: no effect
- Change from Baseline, HAM-D-17 Total at Week 2, LSM Difference (95% CI) ([2]; Female): −0.9 (−2.6, 0.8)
- Change from Baseline, HAM-D-17 Total at Week 4, LSM Difference (95% CI) ([2]; Female): −2.3 (−4.2, −0.4)
- Change from Baseline, HAM-D-17 Total at Week 2, Mean (SD) ([2]; Female): −6.4 (5.99)
- Change from Baseline, HAM-D-17 Total at Week 2, Median ([2]; Female): −5
- Change from Baseline, HAM-D-17 Total at Week 4, Mean (SD) ([2]; Female): −8.8 (6.82)
- Change from Baseline, HAM-D-17 Total at Week 4, Median ([2]; Female): −8
- HAM-D-17 Total at Week 2, Mean (SD) ([2]; Female): 16.6 (6.25)
- HAM-D-17 Total at Week 2, Median ([2]; Female): 17
- HAM-D-17 Total at Week 4, Mean (SD) ([2]; Female): 14.6 (7.03)
- HAM-D-17 Total at Week 4, Median ([2]; Female): 15
- Change from Baseline, HAM-D-17 Total at Week 2, LSM Difference (95% CI) ([2]; Male): 0.1 (−2.6, 2.8)
- Change from Baseline, HAM-D-17 Total at Week 4, LSM Difference (95% CI) ([2]; Male): 1.4 (−1.4, 4.3)
- Change from Baseline, HAM-D-17 Total at Week 2, Mean (SD) ([2]; Male): −5.7 (5.90)
- Change from Baseline, HAM-D-17 Total at Week 2, Median ([2]; Male): −5
- Change from Baseline, HAM-D-17 Total at Week 4, Mean (SD) ([2]; Male): −7.8 (6.57)
- Change from Baseline, HAM-D-17 Total at Week 4, Median ([2]; Male): −7
- HAM-D-17 Total at Week 2, Mean (SD) ([2]; Male): 16.2 (6.58)
- HAM-D-17 Total at Week 2, Median ([2]; Male): 17
- HAM-D-17 Total at Week 4, Mean (SD) ([2]; Male): 14.3 (6.96)
- HAM-D-17 Total at Week 4, Median ([2]; Male): 15
- Change from Baseline, SDS Total at Week 2, LSM Difference (95% CI) ([3]; Female): −1.7 (−3.3, −0.1)
- Change from Baseline, SDS Total at Week 4, LSM Difference (95% CI) ([3]; Female): −2.0 (−3.8, −0.2)
- Change from Baseline, SDS Total at Week 2, Mean (SD) ([3]; Female): −4.7 (5.74)
- Change from Baseline, SDS Total at Week 2, Median ([3]; Female): −4
- Change from Baseline, SDS Total at Week 4, Mean (SD) ([3]; Female): −5.8 (6.70)
- Change from Baseline, SDS Total at Week 4, Median ([3]; Female): −5
- SDS Total at Week 2, Mean (SD) ([3]; Female): 11.8 (6.24)
- SDS Total at Week 2, Median ([3]; Female): 11
- SDS Total at Week 4, Mean (SD) ([3]; Female): 11.2 (6.98)
- SDS Total at Week 4, Median ([3]; Female): 11
- Change from Baseline, SDS Total at Week 2, LSM Difference (95% CI) ([3]; Male): 2.6 (0.3, 4.8)
- Change from Baseline, SDS Total at Week 4, LSM Difference (95% CI) ([3]; Male): 1.3 (−1.3, 3.8)
- Change from Baseline, SDS Total at Week 2, Mean (SD) ([3]; Male): −2.4 (5.27)
- Change from Baseline, SDS Total at Week 2, Median ([3]; Male): −2
- Change from Baseline, SDS Total at Week 4, Mean (SD) ([3]; Male): −5.0 (6.14)
- Change from Baseline, SDS Total at Week 4, Median ([3]; Male): −4
- SDS Total at Week 2, Mean (SD) ([3]; Male): 12.8 (5.99)
- SDS Total at Week 2, Median ([3]; Male): 13
- SDS Total at Week 4, Mean (SD) ([3]; Male): 10.5 (6.39)
- SDS Total at Week 4, Median ([3]; Male): 10

Reference: patent publication US20250360109A1, “COMPOSITIONS AND METHODS FOR TREATING DEPRESSION IN FEMALES” (priority 2022, published 2025)
